Results on 11 compounds are retold here after PMC6173509, “C-3- and C-4-Substituted Bicyclic Coumarin Sulfamates as Potent Steroid Sulfatase Inhibitors” (ACS Omega, 2018).

pIC50: −log10 of the molar value.

One test deals with T1, steroid sulfatase (STS) (Homo sapiens, UniProt P08842).
T1 sequence (P08842 22-583): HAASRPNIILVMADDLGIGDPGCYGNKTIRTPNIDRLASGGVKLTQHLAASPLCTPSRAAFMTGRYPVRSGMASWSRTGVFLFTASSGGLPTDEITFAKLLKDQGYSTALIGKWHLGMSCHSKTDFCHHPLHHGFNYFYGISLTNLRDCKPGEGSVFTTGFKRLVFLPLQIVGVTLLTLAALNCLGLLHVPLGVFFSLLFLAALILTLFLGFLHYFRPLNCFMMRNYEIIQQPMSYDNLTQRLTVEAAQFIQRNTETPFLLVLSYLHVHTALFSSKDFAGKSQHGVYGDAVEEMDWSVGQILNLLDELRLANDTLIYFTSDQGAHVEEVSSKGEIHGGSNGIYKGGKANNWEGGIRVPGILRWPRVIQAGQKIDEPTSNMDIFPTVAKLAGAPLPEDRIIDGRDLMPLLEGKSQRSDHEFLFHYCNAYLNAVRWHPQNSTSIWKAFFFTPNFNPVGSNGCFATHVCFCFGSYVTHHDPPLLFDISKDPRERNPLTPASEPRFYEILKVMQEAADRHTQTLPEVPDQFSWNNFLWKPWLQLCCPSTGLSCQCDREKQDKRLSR
Description: STS inhibition in intact MCF-7 breast cancer cells. Type of test: cell-based. Also noted: endogenous in cells; host or cells: MCF-7 breast cancer cells. To be noted: MCF7, read-out: % Inhibition of STS Activity in Intact MCF-7 Breast Cancer Cells at 0.1 μM.
One may read the inhibition as the drop in the measured response relative to a control, in per cent. `CCCCCCCc1cc(=O)oc2cc(OS(N)(=O)=O)ccc12` [compound 12, 4-Heptylcoumarin-7-O-sulfamate]: the inhibition at 0.1 µM worked out at 93%.

`CCCCCCCCc1cc(=O)oc2cc(OS(N)(=O)=O)ccc12` [compound 13, 4-Octylcoumarin-7-O-sulfamate]: the inhibition at 0.1 µM worked out at 90%.

For `NS(=O)(=O)Oc1ccc2c(-c3ccccc3)cc(=O)oc2c1` [compound 22, 4-Phenylcoumarin-7-O-sulfamate], the inhibition at 0.1 µM was found to be 36%.

The same test, now with this note: MCF7, read-out: % Inhibition of STS Activity in Intact MCF-7 Breast Cancer Cells at 1 μM.
Consider `CCCCCCCc1cc(=O)oc2cc(OS(N)(=O)=O)ccc12` [compound 12, 4-Heptylcoumarin-7-O-sulfamate], for which the inhibition at 1 µM stood at 95%.

In the case of `CCCCCCCCc1cc(=O)oc2cc(OS(N)(=O)=O)ccc12` [compound 13, 4-Octylcoumarin-7-O-sulfamate], the inhibition at 1 µM was 97%.

Turning to `NS(=O)(=O)Oc1ccc2c(-c3ccccc3)cc(=O)oc2c1` [compound 22, 4-Phenylcoumarin-7-O-sulfamate], the inhibition at 1 µM was determined as 79%.

The test is the same for the next values; noted with them: MCF7, read-out: % Inhibition of STS Activity in Intact MCF-7 Breast Cancer Cells at 10 μM.
For `CCCCCCCc1cc(=O)oc2cc(OS(N)(=O)=O)ccc12` [compound 12, 4-Heptylcoumarin-7-O-sulfamate], the inhibition at 10 µM turned out to be 99%.

With `CCCCCCCCc1cc(=O)oc2cc(OS(N)(=O)=O)ccc12` [compound 13, 4-Octylcoumarin-7-O-sulfamate], the inhibition at 10 µM stood at 99%.

On to `NS(=O)(=O)Oc1ccc2c(-c3ccccc3)cc(=O)oc2c1` [compound 22, 4-Phenylcoumarin-7-O-sulfamate], for which the inhibition at 10 µM came out at 87%.

In the next test the target is T1, steroid sulfatase (STS). Description: STS inhibition in placental microsomes. The format is biochemical. Also noted: a placental microsomal preparation from a sulfatase-positive human placenta from a normal term pregnancy; from tissue; host or cells: human placenta (microsomal preparation). To be noted: 0.01 μM inhibitor; 20 μM E1S.
In turn, `CCCCCCCc1cc(=O)oc2cc(OS(N)(=O)=O)ccc12` [compound 12, 4-Heptylcoumarin-7-O-sulfamate] yielded an inhibition at 0.01 µM of 8%.

`CCCCCCCCc1cc(=O)oc2cc(OS(N)(=O)=O)ccc12` [compound 13, 4-Octylcoumarin-7-O-sulfamate] yielded an inhibition at 0.01 µM of 28%.

In turn, `CCCCCCCCCCCc1cc(=O)oc2cc(OS(N)(=O)=O)ccc12` [compound 16, 4-Undecylcoumarin-7-O-sulfamate] showed an inhibition at 0.01 µM of 8%.

The test is the same for the next values; noted with them: 0.1 μM inhibitor; 20 μM E1S.
As to `CCCCCCCc1cc(=O)oc2cc(OS(N)(=O)=O)ccc12` [compound 12, 4-Heptylcoumarin-7-O-sulfamate], the inhibition at 0.1 µM came out at 64%.

In turn, `CCCCCCCCc1cc(=O)oc2cc(OS(N)(=O)=O)ccc12` [compound 13, 4-Octylcoumarin-7-O-sulfamate] gave an inhibition at 0.1 µM of 74%.

In turn, `CCCCCCCCCCCc1cc(=O)oc2cc(OS(N)(=O)=O)ccc12` [compound 16, 4-Undecylcoumarin-7-O-sulfamate] yielded an inhibition at 0.1 µM of 56%.

`CC(C)c1cc(=O)oc2cc(OS(N)(=O)=O)ccc12` [compound 19, 4-(Prop-2-yl)coumarin-7-O-sulfamate]: the inhibition at 0.1 µM was 86%.

With `CC(C)Cc1cc(=O)oc2cc(OS(N)(=O)=O)ccc12` [compound 20, 4-(1′,1′-Dimethylethyl)coumarin-7-O-sulfamate], the inhibition at 0.1 µM amounted to 19%.

Consider `NS(=O)(=O)Oc1ccc2c(CC34CC5CC(CC(C5)C3)C4)cc(=O)oc2c1` [compound 27, 4-(1-Adamantanemethyl)coumarin-7-O-sulfamate], for which testing at 0.1 µM gave an inhibition of 8%.

Regarding `Cc1c(CC2CCCCC2)c(=O)oc2cc(OS(N)(=O)=O)ccc12` [compound 44, 3-Cyclohexylmethyl-4-methylcoumarin-7-O-sulfamate], the inhibition at 0.1 µM came to 74%.

The compound `Cc1c(CCC2CCCCC2)c(=O)oc2cc(OS(N)(=O)=O)ccc12` [compound 45, 3-(2-Cyclohexylethyl)-4-methylcoumarin-7-O-sulfamate] came in with an inhibition at 0.1 µM of 37%.

The same test, now with this note: 1 μM inhibitor; 20 μM E1S.
For `CCCCCCCc1cc(=O)oc2cc(OS(N)(=O)=O)ccc12` [compound 12, 4-Heptylcoumarin-7-O-sulfamate], at 1 µM the inhibition was 97%.

Turning to `CCCCCCCCc1cc(=O)oc2cc(OS(N)(=O)=O)ccc12` [compound 13, 4-Octylcoumarin-7-O-sulfamate], the inhibition at 1 µM came to 97%.

`CCCCCCCCCCCc1cc(=O)oc2cc(OS(N)(=O)=O)ccc12` [compound 16, 4-Undecylcoumarin-7-O-sulfamate] yielded an inhibition at 1 µM of 92%.

As for `CC(C)c1cc(=O)oc2cc(OS(N)(=O)=O)ccc12` [compound 19, 4-(Prop-2-yl)coumarin-7-O-sulfamate], the inhibition at 1 µM is 90%.

`CC(C)Cc1cc(=O)oc2cc(OS(N)(=O)=O)ccc12` [compound 20, 4-(1′,1′-Dimethylethyl)coumarin-7-O-sulfamate] had an inhibition at 1 µM of 97%.

As for `NS(=O)(=O)Oc1ccc2c(CC34CC5CC(CC(C5)C3)C4)cc(=O)oc2c1` [compound 27, 4-(1-Adamantanemethyl)coumarin-7-O-sulfamate], the inhibition at 1 µM was determined as 96%.

In turn, `Cc1c(CC2CCCCC2)c(=O)oc2cc(OS(N)(=O)=O)ccc12` [compound 44, 3-Cyclohexylmethyl-4-methylcoumarin-7-O-sulfamate] displayed an inhibition at 1 µM of 99%.

The compound `Cc1c(CCC2CCCCC2)c(=O)oc2cc(OS(N)(=O)=O)ccc12` [compound 45, 3-(2-Cyclohexylethyl)-4-methylcoumarin-7-O-sulfamate] gave an inhibition at 1 µM of 99%.

The test is the same for the next values; noted with them: 10 μM inhibitor; 20 μM E1S.
`CCCCCCCc1cc(=O)oc2cc(OS(N)(=O)=O)ccc12` [compound 12, 4-Heptylcoumarin-7-O-sulfamate]: the inhibition at 10 µM is 99%.

Compound `CCCCCCCCc1cc(=O)oc2cc(OS(N)(=O)=O)ccc12` [compound 13, 4-Octylcoumarin-7-O-sulfamate] yielded an inhibition at 10 µM of 99%.

In turn, `CCCCCCCCCCCc1cc(=O)oc2cc(OS(N)(=O)=O)ccc12` [compound 16, 4-Undecylcoumarin-7-O-sulfamate] registered an inhibition at 10 µM of 97%.

In turn, `CC(C)c1cc(=O)oc2cc(OS(N)(=O)=O)ccc12` [compound 19, 4-(Prop-2-yl)coumarin-7-O-sulfamate] showed an inhibition at 10 µM of 94%.

Staying with this test, now noted: 20 μM E1S.
What is called pIC50 is the IC50 on a negative log10 scale, so that one unit is a factor of ten. High values mean a small IC50, low ones a large IC50. Regarding `CCCCCCCc1cc(=O)oc2cc(OS(N)(=O)=O)ccc12` [compound 12, 4-Heptylcoumarin-7-O-sulfamate], the pIC50 was 7.05.

On to `CCCCCCCCc1cc(=O)oc2cc(OS(N)(=O)=O)ccc12` [compound 13, 4-Octylcoumarin-7-O-sulfamate], for which the pIC50 is 7.17.

Compound `CCCCCCCCCCCc1cc(=O)oc2cc(OS(N)(=O)=O)ccc12` [compound 16, 4-Undecylcoumarin-7-O-sulfamate] had a pIC50 of 7.14.

Regarding `NS(=O)(=O)Oc1ccc2c(-c3ccccc3)cc(=O)oc2c1` [compound 22, 4-Phenylcoumarin-7-O-sulfamate], the pIC50 was 6.70.

As to `CCCCCCCCCCCc1c(C)c2ccc(OS(N)(=O)=O)cc2oc1=O` [compound 34, 4-Methyl-3-undecylcoumarin-7-O-sulfamate], the negative-log IC50 (pIC50) was 5.70.

For `CCCCCCCCCCCCCCc1c(C)c2ccc(OS(N)(=O)=O)cc2oc1=O` [compound 37, 4-Methyl 3-tetradecylcoumarin-7-O-sulfamate], the negative logarithm of the IC50 (pIC50) was 5.00.
